Reference: patent US6919455B2, “Purine derivative dihydrate, drugs containing the same as the active ingredient and intermediate in the production thereof” (Mitsubishi Chemical Corporation, priority 1999, dated 2005)
pIC50: −log10 of the molar value.

System: PDE IV
Test: PDE IV inhibiting effect (3H-cAMP hydrolysis, crude enzyme from U937 cells)
Details: read-out: IC50 (concentration for 50% inhibition) against PDE IV; crude enzyme from cytoplasmic fraction of human monocyte-like U937 cells; 0.4 μM 3H-cAMP; pH 8.0; 30° C., 15 minutes
Experimental: The crude enzyme was purified from a cytoplasmic fraction of human monocyte-like cell strain U937 by using a Q-Sepharose column according to the method of Nicholson et al. (Br. J. Pharmacol., 97, 889 (1989)]. The enzymatic activity was determined by performing a reaction using 0.4 μM ^3H-cAMP as the substrate in 50 mM Tris buffer (pH 8.0) containing 0.1 mg/ml BSA, 1 ml of EDTA and 5 mM MgCl2 at 30° C. for 15 minutes, and then separating the produced ^3H-5′-AMP using a cation exchange column and measuring its radioactivity according to the method of Hidaka et al. [Biochem. Med., 10, 301 (1974)]. After a test compound was added, the reaction mixture was incubated at 30° C. for 15 minutes, and then added with the substrate.

- pIC50: 8.47
Compound: COc1ccc(Cn2c(C)nc3c(C)nc(OCCCc4cc[n+]([O-])cc4)nc32)cc1OC1CCCC1 [dihydrate of the present invention, Dihydrate of 4-[[9-[(3-cyclopentyloxy-4-methoxy)benzyl]-6,8-dimethylpurine]-2-yl-3-oxypropyl]pyridine N-oxide]
